# Test results published in US9326512B2, “Synergistic combination of a flurochloridone compound and zinc pyrithione for dry film protection” (Rohm and Haas Company, priority 2013, dated 2016).
# Tested on: Chlorella sp. ATCC 7516
# Test: Algal efficacy testing of dry paint films (modified ASTM 5589, 6-well plates)
# Type: cell-based
# Settings: 3 weeks; for Total conc (lowest total biocide concentration in paint passing ≧75% inhibition): pass level ≧75% algal growth inhibition, dry paint film coupon
# Procedure: These paints were then diluted with an antimicrobial free acrylic/silicone based paint and mixed to prepare targeted concentrations of antimicrobial compounds for the testing. The total biocides concentrations tested were 125, 250, 500, 1000, 2000 and 5000 ppm. After biocides addition or dilution, the paints were mixed 90 seconds with the horse power shaker (AXEL 75M3372/Agitateur SO-10MI) until uniformity was achieved. Paints containing different antimicrobial compounds at the same levels were mixed together in order to obtain the desired ratio of antimicrobial compounds. After one day, the paints were applied to Schleicher & Schuell filter paper at 280 μm wft and dried for 3 days at room temperature avoiding direct exposure to sunlight. Square discs (1.6 cm×1.6 cm) were cut out from each panel and were used as the substrate for algal efficacy tests. This sample size allowed for an agar border when the sample disc was placed into the well of the test plate.
# Algal efficacy was tested according to modified ASTM 5589 which is a standard accelerated test method for determining resistance of various coatings (including paints) to algal defacement. To accommodate for high-throughput screening, this method was scaled down from petri dishes to 6-well plates. Bold Modified Basal Freshwater Nutrient Solution was used as growth medium. A single coated filter paper coupon was placed with a pair of sterile forceps at the center of the agar plug (on top) with the painted surface facing upwards.
# Each well that contains a tested coupon was inoculated with 1750 μl of algal suspensions (1×10^6 cfu/ml) making sure that the whole surface (paint film as well as the agar surrounding it) was evenly covered. The plates were incubated at room temp (21° C.-25° C.) with cyclic exposure to light and dark phases, for a period of three weeks.
# At the end of the three week incubation period, the samples were scored for percent inhibition regarding color intensity compared to the blank sample.
# The Synergy Index calculation was performed as follows.
# The SI is calculated based on F. C.
# SI value of <1 in the formula indicates a synergism of the blended biocides exists.
# The minimal targeted inhibition was set at 75%, meaning a coupon with at least 75% algal growth inhibition was considered as a pass.
smiles,measurement,setting,value
"O=C1C(Cl)C(CCl)CN1c1cccc(C(F)(F)F)c1 (stereo not shown) [Flurochloridone, 3-chloro-4-(chloromethyl)-1-[3-(trifluoromethyl)phenyl]-2-pyrrolidinone]",Total conc (lowest total biocide concentration in paint passing ≧75% inhibition),,5000 ppm
same,inhibition at 5000 ppm,"504 h, total conc 5000 ppm in paint",85%
"[O-][n+]1ccccc1[S][Zn][S]c1cccc[n+]1[O-] [ZnPT, bis(2-pyridylthio)zinc 1,1′-dioxide]",Total conc (lowest total biocide concentration in paint passing ≧75% inhibition),,500 ppm
same,% inhibition,total conc 500 ppm in paint,95%
